Reference: US6750221B1 (BASF Aktiengesellschaft, priority 1999, dated 2004)
Like-named read-outs stand apart in the source and are kept apart here.

Legend:
h5-HT5 receptor [1] = biological target: T1, h5-HT5 receptor (Homo sapiens, UniProt P47898); experiment: [3H]-5-CT binding competition on h5-HT5 membranes
T1 construct: expressed in transfected cells; host or cells: HEK293 cells (CHO cells obtained analogously), pcDNA3 plasmid, neomycin selection; membranes prepared
Procedure: Membranes obtained according to Example 2 (200 μl) were incubated in the presence of 2 nM [^3H]-5-CT in a total volume of 600 μl in buffer B with increasing concentrations of selected compounds. After an incubation time of 75 min at 30° C., the samples were filtered at 4° C. through GF/B filters embedded in 0.3% polyethyleneimide using buffer B. The filters were washed with 9 ml of buffer B. The radioactivity retained on the filters was determined as in Reference Example 3.
According to Reference Example 4, the binding affinities of serotoninergic compounds were determined by means of [^3H]-5-CT binding competition.

h5-HT5 receptor [2] = biological target: T1, h5-HT5 receptor; experiment: Saturation binding of [3H]-5-CT to membranes of h5-HT5 receptor-expressing cells; settings: 30° C., 90 min, read-out: dissociation constant Kd
Procedure: The gene coding for the human 5-HT5 receptor was isolated from human tissues in a known manner by means of 3′-5′-RT-PCR (RACE system, Boehringer Mannheim). The gene sequence was then inserted into a plasmid carrying the neomycin resistance gene (pcDNA3; Invitrogen, Germany) and amplified in E. coli according to the manufacturer's instructions. A preparation of the resulting plasmid was mixed with Lipofectamin® (Gibco Life-Sciences, Germany), and HEK293 cells were incubated with a thin layer of this transfection mixture in petri dishes (2.5 cm). The transfection mixture was then replaced by neomycin-containing culture medium. […]
The methodology is essentially known (Ress S. et al., FEBS Letters 335:242-246 (1994)). […] The filters were washed at 4° C. with 9 ml of buffer B. The radioactivity retained on the filters was measured by means of liquid scintillation counting, 5 ml of Ultima-Gold (Packard) being used.
The saturation parameters of the [^3H]-5-CT binding was determined both by nonlinear regression analysis and from linear plots using the SigmaPlot software (Jandel Scientific, Germany). Competition curves were set up in which the radioactive binding is expressed as a percentage proportion of the total binding. Half maximal inhibition constants IC50 and Hill-coefficients (nH) were determined by means of nonlinear regression analysis. […]

male Long Evans rats = experiment: Neuroprotective action: MCA occlusion (experimental cerebral stroke); assay type: in vivo, rat; settings: 90 min after MCA occlusion, infarct volume 22 hours after occlusion
Procedure: The experiments were performed on male Long Evans rats. Under nitrous oxide-assisted halothane anesthesia, the middle cerebral artery (MCA) was severed and permanently ligated distally, as described in the literature. The resulting infarct volume was determined 22 hours after MCA occlusion.

hippocampal neurons = experiment: Neuroprotective action: experimental brain trauma of the rat (lateral fluid percussion); assay type: in vivo; settings: 20 + 20 mg/kg i.p., 15 + 120 min post trauma; 14 days after traumatization
Excerpt: The lateral fluid percussion method (McIntosh TK, Neuroscience 28, 233 244, 1989) was used in order to produce an experimental brain trauma in the rat which is suitable for the testing of potential neuroprotective substances. By means of this technique, controlled and consistent tissue damage was produced underneath the site of the impact, which included the neocortex, the hippocampus and the thalamus.
The right parietotemporal region of the skull was exposed in the anesthetized rat. The skull was trepanned through the parietal cortex (about 4 mm diameter), the dura being left intact. A Luer lock attachment was fixed to the skull using dental cement through the trepanation. After the dental cement had hardened, the rat was connected to the fluid percussion apparatus according to McIntosh. This consisted of a cylinder filled with 0.9% NaCl solution, one end of the cylinder being closed by a piston, while the other end was connected via a pressure transducer to a Luer lock attachment. […]
The rats were sacrificed 14 days after traumatization for removal of the brain. […] For the quantification of the neuronal damage, cell counts were carried out bilaterally in the rostral hippocampus; the proportion of intact cells in the dentate gyrus was determined on the traumatized (right) and the (left) opposite side. […]

[3] = 2 + 1 mg/kg + mg/kg/h i.v. bolus then infusion

T1 sequence (P47898 whole entry): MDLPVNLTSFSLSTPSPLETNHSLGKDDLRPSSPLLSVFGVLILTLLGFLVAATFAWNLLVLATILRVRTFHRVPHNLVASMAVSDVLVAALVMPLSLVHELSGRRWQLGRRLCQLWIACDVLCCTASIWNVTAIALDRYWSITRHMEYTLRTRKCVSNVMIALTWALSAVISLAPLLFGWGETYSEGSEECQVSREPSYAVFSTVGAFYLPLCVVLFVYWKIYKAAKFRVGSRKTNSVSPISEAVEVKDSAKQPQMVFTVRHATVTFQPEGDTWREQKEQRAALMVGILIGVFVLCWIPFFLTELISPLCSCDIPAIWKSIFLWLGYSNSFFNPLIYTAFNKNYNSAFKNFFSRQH

Structure (SMILES)	Ki (h5-HT5 receptor [1]) [nM]	Quotient m ± sm of neuron count of the trauma side to the contralateral side (hippocampus) (hippocampal neurons)	Infarct volume, % of the control [mean value ± SD] (male Long Evans rats; [3])	other results
NCCc1c[nH]c2ccc(C(N)=O)cc12 [Compound 5-CT, 5-carboxamidotryptamine, reference compound]	–	–	–	Ki (h5-HT5 receptor [1]; 2 nM [3H]-5-CT, 75 min at 30° C., Ki=IC50/(1+C/Kd)): 1.44 nM; Kd (h5-HT5 receptor [2]): 0.57 nM
CN1CCc2c(sc3ncn(CCN4CCN(c5cccc(C(F)(F)F)c5)CC4)c(=O)c23)C1 [Compound A, 3,4,5,6,7,8-Hexahydro-7-methyl-3-[2-(4-(3-trifluoromethyl-phenyl)piperazin-1-yl)ethyl]pyrido[4′,3′:4,5]thieno[2,3-d]-pyrimidin-4-one]	661	–	–	Infarct volume, % of the control [mean value ± SD] (male Long Evans rats; 4 + 2 mg/kg + mg/kg/h i.v. bolus then infusion): 62 ± 18 % of the control
CCN1CCc2sc3ncn(CCN4CCN(c5cccc6ccccc56)CC4)c(=O)c3c2C1 [Compound B, 3,4,5,6,7,8-Hexahydro-6-ethyl-3-[2-(4-(1-naphthyl)piperazin-1-yl)ethyl]pyrido[3′,4′:4,5]thieno[2,3-d]pyrimidin-4-one]	124	0.64 ± 0.03	66 ± 19 % of the control	–
COc1ccc2cccc(N3CCN(CCn4cnc5sc6c(c5c4=O)CCN(C)C6)CC3)c2c1 [Compound C]	237	0.56 ± 0.05	–	Infarct volume, % of the control (male Long Evans rats; 1 + 0.5 mg/kg + mg/kg/h i.v. bolus then infusion): 67 % of the control
CCCN(CCC)C1CCc2cccc(O)c2C1 (stereo not drawn) [R(+)-8-OH-DPAT, 8-hydroxy-2-(di-n-propylamino)tetralin, reference compound]	–	–	72 ± 32 % of the control	–
